Assays:
[1] = cited from earlier work
[2] = cited from earlier work; for half-life: formerly reported
[3] = cited from earlier work; remark: listed apart in the source
Lymphoma L1210 = test system: Lymphoma L1210; set-up: method as in PMID 19081996, PMID 19718801, PMID 20097958; conditions: C57BL/Lymphoma L1210 bearing mice; cited from earlier work
[4] = EPR organ and blood distribution of SLENU after i.p. administration; format: in vivo, male albino non-inbred mice; conditions: i.p. 40 mg/kg
Description: For EPR experiments of SLENU (administrated i.p. at a dose of 40 mg/kg) blood samples were taken from the free-streaming blood of a male albino non-inbred mice and were collected into heparinized tubes containing PBS (pH = 7–7.4). […] Decay-corrected radioactivity in the blood was expressed as per cent injected dose in the blood, using the total blood volume as 7% of the body weight. Animal protocols have been approved by the Bulgarian/Indian Institutional Animals ethics Committee.
First biodistribution study for EPR experiments of SLENU in organ homogenates (liver, lungs, spleen, pancreas, brain, kidneys) and blood was evaluated in male albino non-inbred mice (35–40 g body weight, normal diet) as previously described by. Spin-labelled nitrosourea was administrated i.p. at a dose of 40 mg/kg. Animals were decapitated at appropriate time points following injection (10, 30, 60, 90 min and on 4 h, 24 h) and dissected. Tissues from lungs, liver, spleen, brain, kidneys, pancreas and blood were collected and processed immediately. For nitrosourea extraction, samples were weighed and homogenized in PBS (10% w/v) and centrifuged at 2000 g for 15 min. Supernatants were collected and the concentration of nitrosourea was evaluated by EPR spectroscopy. Before measuring the spin-labelled concentration, the samples were […] by K3[Fe(CN6)] (a spectroscopic broadening reagent), because of the fast reduction of the nitroxide function (10–20 min) in the tissues.

| Structure (SMILES) | alkylating activity [1] | alkylating activity relative to CCNU ([1]; formerly reported) | τ0.5 [2] | half-life [2] | carbamoylating activity ([3]; EPR research) | carbamoylating activity relative to CCNU ([3]; formerly reported) | optimal dose for anticancer activity (Lymphoma L1210) | time of maximum concentration in blood (EPR) ([4]; blood) | time of maximum concentration in brain (EPR) ([4]; brain homogenate) | time of maximum concentration in kidneys (EPR) ([4]; kidneys homogenate) | time of maximum concentration in liver (EPR) ([4]; liver homogenate) | time of maximum concentration in lungs (EPR) ([4]; lungs homogenate) | time of maximum concentration in pancreas (EPR) ([4]; pancreas homogenate) | time of maximum concentration in spleen (EPR) ([4]; spleen homogenate) | presence of spin-labelled nitrosourea in tissues (EPR) ([4]; within 24 h, all tissues studied) |
| --- | --- | --- | --- | --- | --- | --- | --- | --- | --- | --- | --- | --- | --- | --- | --- |
| CCN(N=O)C(=O)NC1CC(C)(C)N([O])C(C)(C)C1 [SLENU, 1-ethyl-1-nitroso-3-[4-(2,2,6,6-tetramethylpiperidine-1-oxyl)]-urea] | 0.008 A560/mmol/L/h | lower than that of CCNU | 75 min | 1.25 h | 54.46 ± 0.17 | high and comparable with that of CCNU | 45 mg/kg | 60 min | 60 min | 60 min | 90 min | 30 min | 60 min | 60 min | complete absence |
| O=NN(CCCl)C(=O)NC1CCCCC1 [CCNU, 1-(2-chloroethyl)-3-cyclohexyl-1-nitrosourea, reference compound] |  |  |  | 0.9 h |  |  |  |  |  |  |  |  |  |  |  |
